Each compound was assayed against T1, Edg-1/S1P1 receptor (Homo sapiens, UniProt P21453) (assay: In vitro cell based receptor activation assay - Transfluor assay (assay I or II; beta-arrestin GFP relocalization after S1P stimulation)). Settings: at 3.30 μM (run with this as top concentration).
T1 construct: expressed in transfected cells; host or cells: human osteogenic sarcoma U2OS cells: Edg-1 Transfluor U2OS WT Clone #37 (assay I), Edg-1 Transfluor U2OS Clone #3 (assay II)
From the text: The following assays can be used to measure the effects of the compounds of the present invention as S1P1/Edg1 inhibitors.
I. In Vitro Cell Based Receptor Activation Assay-Transfluor Assay
(§1) This cell-based assay was designed to assess the ability of small molecule antagonists to inhibit activation of the GPCR S1P1 in the presence of its cognate ligand S1P. The assay used technology initially developed by Norak Biosciences (Xsira Pharmaceutical) and presently owned by Molecular Devices. A human osteogenic sarcoma (U2OS) cell line overexpressing the Edg-1/S1P1) receptor as well as a beta-arrestin/green fluorescent protein (GFP) construct hereafter termed Edg-1 Transfluor U2OS WT Clone #37 was employed.
Using a high content screening approach (Cellomics Arrayscan), receptor activity was measured by assessment of the relocalization of beta-arrestin GFP in response to stimulation of Edg-1 by SIP. Specifically, Edg-1 Transfluor U2OS WT Clone #37 cells were plated at a density of 6250 cells in 40 μL medium per well in 384 well plastic bottomed microtiter plates (BD Falcon) and incubated overnight at 37° C./5% CO2. Prior to screening, compounds were dissolved in 100% dimethyl sulfoxide (DMSO) to a final stock concentration of 10 mM. Compounds were then serially diluted at 30× final concentration in Edg-1 Transfluor cell growth medium containing […] using the Tecan Genesis instrument. These 30× plates were then diluted to 6× final concentration with Edg-1 Transfluor growth medium just prior to dosing. Cells were then dosed with 10 μL per well of 6× compound dilutions or 6% DMSO and pre-incubated for 15 minutes at room temperature. Cell plates were dosed with 10 μL per well 6× S1P Edg-1 Transfluor growth medium, then incubated for 45 minutes at 37° C./5% CO2. Final concentration in the well of DMSO was 1%, compound was IX (3-fold, 9 point IC50 dilutions starting at 100 μM final concentration), and either 375 nM or […] SIP ligand. Cell plates were then fixed by adding 50 μL per well of 5% formaldehyde in 1× Dulbecco's phosphate buffered saline (DPBS) directly and incubating for 30 minutes at room temperature in darkness. Fixative was removed and replaced with 50 μL per well of 1×DPBS, after which cells were stained with 10 μg/mL final concentration of Hoechst 33342 (Molecular Probes) for 15 minutes at room temperature in darkness. Stain was then removed from the plates and replaced with 50 μL per well of 1×DPBS using the BioTek ExL405 plate washer. Plates were then sealed and analysed on the Cellomics Arrayscan using the GPCR signalling algorithm. EC50 values were then calculated using IDBS ActivityBase software.
II. In Vitro Cell Based Receptor Activation Assay-Transfluor Assay
as §1, with “Devices (MDS Analytical Technologies).” for “Devices.”, “U2OS” for “U2OS WT”, “#3” for “#37”
Using a high content screening approach (Molecular Devices Image Express), receptor activity was measured by assessment of the relocalization of beta-aiTestin GFP in response to stimulation of Edg-1 by S1P. Specifically, Edg-1 Transfluor U2OS Clone #3 cells were plated at a density of 6250 cells in 44 μL medium per well in 384 well plastic bottomed microtiter plates (BD Falcon) and incubated overnight at 37° C./5% CO2. Prior to screening, compounds were dissolved in 100% dimethyl sulfoxide (DMSO) to a final stock concentration of 10 mM. Compounds were then serially diluted at 10× final concentration in Edg-1 Transfluor cell growth medium containing 6% DMSO using the BioMek instrument. […]

T1 sequence (P21453 whole entry): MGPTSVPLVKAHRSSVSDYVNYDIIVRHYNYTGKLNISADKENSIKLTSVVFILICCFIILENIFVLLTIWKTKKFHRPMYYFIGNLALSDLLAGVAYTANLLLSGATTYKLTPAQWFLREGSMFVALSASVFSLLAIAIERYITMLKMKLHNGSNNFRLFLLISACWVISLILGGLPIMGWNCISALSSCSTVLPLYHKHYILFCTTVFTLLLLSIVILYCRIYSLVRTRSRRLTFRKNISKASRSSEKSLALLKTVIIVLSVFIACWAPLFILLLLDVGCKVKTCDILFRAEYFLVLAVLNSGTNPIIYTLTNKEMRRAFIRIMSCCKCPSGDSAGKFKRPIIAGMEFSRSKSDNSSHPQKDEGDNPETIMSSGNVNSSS

inhibition at 3.3 µM [%]	Structure (SMILES)
92.8	CCCn1c(C(C)NS(=O)(=O)c2ccc(Cl)cc2)nc2ccccc21 (stereo not shown) [Example 17, 4-Chloro-N-[1-(1-propyl-1H-benzimidazol-2-yl)ethyl]-benzenesulfonamide]

Same assay, conditions: at 3.50 μM (titrated from top concentration 10 μM)

inhibition at 3.5 µM [%]	Structure (SMILES)
84.8	CCn1c([C@@H](C)NS(=O)(=O)c2ccc(Cl)cc2)nc2ccc(C(F)(F)F)cc21 [Example 9, 4-Chloro-N-{(1R)-1-[1-ethyl-6-(trifluoromethyl)-1H-benzimidazol-2-yl]ethyl} benzene-sulfonamide]
93.3	CCn1c(C(C)NS(=O)(=O)c2ccc(Cl)cc2)nc2ncccc21 (stereo not shown) [Example 12, 4-Chloro-N-[1-(1-ethyl-1H-imidazo[4,5-b]pyridin-2-yl)-ethyl]-benzenesulfonamide]
96.2	CCn1c(C(C)(C)NS(=O)(=O)c2ccc(Cl)cc2)nc2ccccc21 [Example 16, 4-Chloro-N-[1-(1-ethyl-1H-benzoimidazol-2-yl)-1-methyl-ethyl]-benzenesulfonamide]
73	CCn1c([C@@H](C)NS(=O)(=O)c2ccc(Cl)cc2)nc2cc(C)c(C)cc21 [Example 24, 4-Chloro-N-[(1R)-1-(1-ethyl-5,6-dimethyl-1H-benzimidazol-2-yl)ethyl]benzenesulfonamide]
90	CCn1c([C@@H](C)NS(=O)(=O)c2ccc(F)cc2)nc2ccc(C(F)(F)F)cc21 [Example 25, N-{(1R)-1-[1-Ethyl-6-(trifluoromethyl)-1H-benzimidazol-2-yl]ethyl}-4-fluorobenzenesulfonamide]
87.4	CCn1c([C@@H](C)NS(=O)(=O)c2ccc(C#N)cc2)nc2ccc(C(F)(F)F)cc21 [Example 26, 4-Cyano-N-{(1R)-1-[1-ethyl-6-(trifluoromethyl)-1H-benzimidazol-2-yl]ethyl}benzenesulfonamide]
85.7	CCn1c([C@@H](C)NS(=O)(=O)c2ccc(F)c(C#N)c2)nc2ccc(C(F)(F)F)cc21 [Example 27, 3-Cyano-N-{(1R)-1-[1-ethyl-6-(trifluoromethyl)-1H-benzimidazol-2-yl]ethyl}-4-fluorobenzenesulfonamide]
94.6	CCn1c([C@@H](C)NS(=O)(=O)c2ccc(F)c(C)c2)nc2ccc(C(F)(F)F)cc21 [Example 30, N-{(1R)-1-[1-Ethyl-6-(trifluoromethyl)-1H-benzimidazol-2-yl]ethyl}-4-fluoro-3-methylbenzenesulfonamide]
92	CCn1c([C@@H](C)NS(=O)(=O)c2cc(C)oc2C)nc2ccc(C(F)(F)F)cc21 [Example 33, N-{(1R)-1-[1-Ethyl-6-(trifluoromethyl)-1H-benzimidazol-2-yl]ethyl}-2,5-dimethylfuran-3-sulfonamide]
95.3	CCn1c([C@@H](C)NS(=O)(=O)c2ccc(F)c(F)c2F)nc2ccc(C(F)(F)F)cc21 [Example 34]

Same assay, conditions: at 3.70 μM (titrated from top concentration 100 μM)

inhibition at 3.7 µM [%]	Structure (SMILES)
89.9	CCn1c(C(C)NS(=O)(=O)c2ccc(Cl)cc2)nc2ccc(Cl)cc21 (stereo not shown) [Example 10, 4-Chloro-N-[1-(6-chloro-1-ethyl-1H-benzimidazol-2-yl)ethyl]benzenesulfonamide]
82	CCn1c([C@@H](C)NS(=O)(=O)c2ccc(Cl)cc2)nc2cccc(OC)c21 [Example 11, 4-Chloro-N-[(1R)-1-(1-ethyl-7-methoxy-1H-benzimidazol-2-yl)ethyl]benzene-sulfonamide]
72.8	CCn1c(C(C)NS(=O)(=O)c2ccc(Cl)cc2)nc2cnccc21 (stereo not shown) [Example 13, 4-Chloro-N-[1-(1-ethyl-1H-imidazo[4,5-c]pyridin-2-yl)ethyl]benzene sulfonamide]
72.8	CCn1c(C(C)NS(=O)(=O)c2ccc(Cl)cc2)nc2ccncc21 (stereo not shown) [Example 14, 4-Chloro-N-[1-(3-ethyl-3H-imidazo[4,5-c]pyridin-2-yl)ethyl] benzene sulfonamide]
61.5	CCn1c(C(C)NS(=O)(=O)c2ccc(Cl)cc2)nc2cccnc21 (stereo not shown) [Example 15, 4-Chloro-N-[1-(3-ethyl-3H-imidazo[4,5-b]pyridin-2-yl)ethyl]benzenesulfonamide]
100	CC(NS(=O)(=O)c1ccc(Cl)cc1)c1nc2ccccc2n1CC1CC1 (stereo not shown) [Example 18, 4-Chloro-N-{1-[1-(cyclopropylmethyl)-1H-benzimidazol-2-yl]ethyl}-benzenesulfonamide]
16.4	CC(C)Cn1c(C(C)NS(=O)(=O)c2ccc(Cl)cc2)nc2ccccc21 (stereo not shown) [Example 19, 4-Chloro-N-[1-(1-isobutyl-1H-benzimidazol-2-yl)ethyl]-benzenesulfonamide]
79.5	CCn1c([C@@H](C)NS(=O)(=O)c2ccc(Cl)cc2)nc2cc(F)c(F)cc21 [Example 20, 4-Chloro-N-[(1R)-1-(1-ethyl-5,6-difluoro-1H-benzimidazol-2-yl)ethyl]benzenesulfonamide]
39	CC(NS(=O)(=O)c1ccc(Cl)cc1)c1nc2ccccc2n1C1CC1 (stereo not shown) [Example 21, 4-Chloro-N-[1-(1-cyclopropyl-1H-benzimidazol-2-yl)ethyl]benzenesulfonamide]
63.5	CCn1c([C@@H](C)NS(=O)(=O)c2ccc(Cl)cc2)nc2cc(Cl)c(Cl)cc21 [Example 22, (R)-4-Chloro-N-[1-(5,6-dichloro-1-ethyl-1H-benzoimidazol-2-yl)ethyl]-benzenesulfonamide]
88.1	CC(NS(=O)(=O)c1ccc(Cl)cc1)c1nc2ccccc2n1CC(F)(F)F (stereo not shown) [Example 23, 4-Chloro-N-{1-[1-(2,2,2-trifluoro-ethyl)-1H-benzimidazol-2-yl]-ethyl}-benzenesulfonamide]
66.1	CCn1c([C@@H](C)NS(=O)(=O)C2CCCC2)nc2ccc(C(F)(F)F)cc21 [Example 28, N-{(1R)-1-[1-Ethyl-6-(trifluoromethyl)-1H-benzimidazol-2-yl]ethyl} cyclopentanesulfonamide]
21.8	CCn1c([C@@H](C)NS(=O)(=O)c2ccc(NC(C)=O)c(C)c2)nc2ccc(C(F)(F)F)cc21 [Example 29, N-{4-[({(1R)-1-[1-Ethyl-6-(trifluoromethyl)-1H-benzimidazol-2-yl]ethyl}amino)sulfonyl]-2-methylphenyl}acetamide]
78.6	CCn1ncc(S(=O)(=O)N[C@H](C)c2nc3ccc(C(F)(F)F)cc3n2CC)c1C [Example 31, 1-Ethyl-N-{(1R)-1-[1-ethyl-6-(trifluoromethyl)-1H-benzimidazol-2-yl]ethyl}-5-mthyl-1H-pyrazole-4-sulfonamide]
66.5	CCn1c([C@@H](C)NS(=O)(=O)c2cnc(C)n2C)nc2ccc(C(F)(F)F)cc21 [Example 32, N-{(1R)-1-[1-Ethyl-6-(trifluoromethyl)-1H-benzimidazol-2-yl]ethyl}-1,2-dimethyl-1H-imidazole-5-sulfonamide]
49	CCn1c([C@@H](C)NS(=O)(=O)c2cnc(NC(C)=O)s2)nc2ccc(C(F)(F)F)cc21 [Example 36, N-{5-[({(1R)-1-[1-Ethyl-6-(trifluoromethyl)-1H-benzimidazol-2-yl]ethyl}amino)sulfonyl]-1,3-thiazol-2-yl}acetamide]
58.3	CCn1c([C@@H](C)NS(=O)(=O)c2c(C)noc2C)nc2ccc(C(F)(F)F)cc21 [Example 37, N-{(1R)-1-[1-Ethyl-6-(trifluoromethyl)-1H-benzimidazol-2-yl]ethyl}-3,5-dimethylisoxazole-4-sulfonamide]

Same assay, conditions: one or the other of the two Transfluor assays; Edg-1 Transfluor U2OS cells, S1P ligand

EC50 [µM]	Structure (SMILES)
0.896	CC(NS(=O)(=O)c1ccc(Cl)cc1)c1nc2ccccc2n1CC1CC1 (stereo not shown) [Example 18, 4-Chloro-N-{1-[1-(cyclopropylmethyl)-1H-benzimidazol-2-yl]ethyl}-benzenesulfonamide]
10.3	CC(C)Cn1c(C(C)NS(=O)(=O)c2ccc(Cl)cc2)nc2ccccc21 (stereo not shown) [Example 19, 4-Chloro-N-[1-(1-isobutyl-1H-benzimidazol-2-yl)ethyl]-benzenesulfonamide]
5.15	CC(NS(=O)(=O)c1ccc(Cl)cc1)c1nc2ccccc2n1C1CC1 (stereo not shown) [Example 21, 4-Chloro-N-[1-(1-cyclopropyl-1H-benzimidazol-2-yl)ethyl]benzenesulfonamide]
